Drawing on patent publication US7674819B2 (Warner-Lambert Company LLC, priority 2005, dated 2010), this text covers IC50 for 16 compounds.

The target of one test is T1, hAR (Homo sapiens, UniProt P10275).
T1 sequence (P10275 1-920): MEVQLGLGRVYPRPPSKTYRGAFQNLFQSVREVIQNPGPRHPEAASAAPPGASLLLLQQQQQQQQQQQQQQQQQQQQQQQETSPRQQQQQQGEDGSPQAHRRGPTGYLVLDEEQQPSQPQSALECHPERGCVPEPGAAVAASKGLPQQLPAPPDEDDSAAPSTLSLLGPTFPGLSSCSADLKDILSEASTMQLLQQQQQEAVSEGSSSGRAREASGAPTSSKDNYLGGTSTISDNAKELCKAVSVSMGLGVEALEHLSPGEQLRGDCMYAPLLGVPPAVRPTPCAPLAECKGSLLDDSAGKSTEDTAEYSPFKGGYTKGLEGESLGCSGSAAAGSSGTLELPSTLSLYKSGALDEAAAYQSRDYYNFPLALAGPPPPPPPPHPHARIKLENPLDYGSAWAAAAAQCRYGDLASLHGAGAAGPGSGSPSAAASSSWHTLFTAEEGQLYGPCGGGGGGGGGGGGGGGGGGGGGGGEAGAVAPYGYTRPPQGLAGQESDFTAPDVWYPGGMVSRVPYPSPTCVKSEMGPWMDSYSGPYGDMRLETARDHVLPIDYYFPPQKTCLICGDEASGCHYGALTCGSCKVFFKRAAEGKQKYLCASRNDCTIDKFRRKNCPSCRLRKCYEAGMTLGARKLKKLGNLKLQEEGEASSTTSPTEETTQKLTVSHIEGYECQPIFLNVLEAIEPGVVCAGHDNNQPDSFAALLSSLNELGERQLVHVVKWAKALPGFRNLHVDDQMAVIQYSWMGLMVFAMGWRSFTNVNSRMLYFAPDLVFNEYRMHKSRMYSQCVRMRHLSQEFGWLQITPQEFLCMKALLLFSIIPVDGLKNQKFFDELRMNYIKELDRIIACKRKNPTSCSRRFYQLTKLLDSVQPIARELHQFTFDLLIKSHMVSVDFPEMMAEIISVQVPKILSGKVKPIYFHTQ
Description: Competitive binding of 3H-DHT to baculovirus/Sf9 generated hAR extracts. The note with it: one hour at 4° C., mean of multiple tests. In a few lines: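 Baculovirus/Sf9-expressed hAR extract incubated with test compound, hydroxylapatite and 1 nM 3H-DHT tracer for 1 h at 4° C, then washed free of unbound tracer. Affinity given as concentration inhibiting half of maximal 3H-DHT binding.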

A further test has as its target T2, androgen receptor (Homo sapiens, UniProt P10275).
T2 sequence (P10275 1-920 Q868H): T1 sequence (P10275 1-920) with Q868H
Description: AR Antagonist Cell Assay (MDA-MB453-MMTV clone 54-19, luciferase reporter). The settings on record: inhibition of induction by DHT (final concentration at 100 μM), 17 hr, compound 0.32-1000 nM, mean of multiple tests. The format is cell-based. As for the experimental part:
The compounds ability to antagonize the effects of androgen on the androgen receptor were determined in a whole cell assay as described immediately below.
Experimental Procedure for AR Antagonist Cell Assay
This cell line is a stable transfected cell line with MDA-MB453 cell background (a human breast tumor cell line expressing androgen receptor). A MMTV minimal promoter containing ARE was first cloned in front of a firefly luciferase reporter gene. Then the cascade was cloned into transfection vector pUV120puro. […] Puromycin resistant stable cell line was selected.
Cell Culture Media and Reagents:
Plating medium: DMEM (phenol red free), 10% charcoal treated HyClone serum, 1% L-glutamine
Assay medium: DMEM (phenol red free), 1% charcoal treated HyClone serum, 1% L-glutamine, 1% penicillin/streptomycin
Cells are maintained in culture medium, splitting cells when they reach 80-90% confluence
To test compounds, 10,000 cells/well are plated to opaque 96 cell culture plate in 100 ul/well plating medium, culture for overnight at 37° C. in cell culture incubator
Add 10 ul/well freshly prepared DHT (final concentration at […]) to each well, incubate at 37° C. for 17 hr (overnight)
Add 50 ul/well 3× luciferase buffer, incubate at room temperature for 5 minutes, then count on Luminometer
The results are reported as the mean of multiple tests described below (the numbers of tests are indicated in the footnote). N.D. denotes that the compound was not tested.

[1] abbreviates: IC50, concentration at which one half of maximum binding of 1 nM 3H-DHT to hAR is inhibited.
Where [2] appears, read: concentration at which one half of maximum binding of 1 nM 3H-DHT to hAR is inhibited, read-out: IC50.

Substitutions are numbered along the chain they refer to. Like-named read-outs stand apart in the source and are kept apart here.

As a reminder, the IC50 is the concentration needed to halve the response being measured. Turning to `CC1(C)CN(Cc2cccc(C#N)c2)C(=O)C1Oc1ccc(C#N)c(C(F)(F)F)c1` (centres unmarked) [Example 45], the IC50 on hAR (setting [1]) and at androgen receptor was 50 nM each time.

In the case of `CSCN1CC(C)(C)C(Oc2ccc(C#N)c(C(F)(F)F)c2)C1=O` (single isomer, unassigned) [Example 100B, 4-(4,4-Dimethyl-1-methylsulfanylmethyl-2-oxo-pyrrolidin-3-yloxy)-2-trifluoromethyl-benzonitrile], the IC50 on hAR (setting [1]) was found to be 76 nM; against androgen receptor, 24 nM.

For the compound `CCCC(=O)N1CC(C)(C)C(Oc2ccc(C#N)c(C(F)(F)F)c2)C1=O` (single isomer, unassigned; (+)) [Example 103, (+)-4-(1-Butyryl-4,4-dimethyl-2-oxo-pyrrolidin-3-yloxy)-2-trifluoromethyl-benzonitrile (single enantiomer)], the IC50 at hAR (setting [2]) was 130 nM; on androgen receptor (read-out: IC50) it was 125 nM.

Turning to `CC1(C)CN(Cc2cccc(OC(F)F)c2)C(=O)C1Oc1ccc(C#N)c(C(F)(F)F)c1` (centres unmarked) [Example 42, 4-[1-(3-Difluoromethoxy-benzyl)-4,4-dimethyl-2-oxo-pyrrolidin-3-yloxy]-2-trifluoromethyl-benzonitrile], the IC50 on hAR (setting [2]) amounted to 120 nM; at androgen receptor (read-out: IC50) it was 219 nM.

Turning to `CC1(C)CN(Cc2cccc3nsnc23)C(=O)C1Oc1ccc(C#N)c(C(F)(F)F)c1` (centres unmarked) [Example 41, 4-(1-Benzo[1,2,5]thiadiazol-4-ylmethyl-4,4-dimethyl-2-oxo-pyrrolidin-3-yloxy)-2-trifluoromethyl-benzonitrile], the IC50 came out at 107 nM at hAR (setting [2]) and 72 nM on androgen receptor (read-out: IC50).

For the compound `CC1(C)CN(Cc2noc(-c3ccccc3)n2)C(=O)C1Oc1ccc(C#N)c(C(F)(F)F)c1` (centres unmarked) [Example 46, 4-[4,4-Dimethyl-2-oxo-1-(5-phenyl-[1,2,4]oxadiazol-3-ylmethyl)-pyrrolidin-3-yloxy]-2-trifluoromethyl-benzonitrile], the IC50 at hAR (setting [1]) was 90 nM; at androgen receptor it was 43 nM.

Consider `COc1ccccc1-c1nnc(CN2CC(C)(C)C(Oc3ccc(C#N)c(C(F)(F)F)c3)C2=O)o1` (centres unmarked) [Example 121, 4-{1-[5-(2-Methoxy-phenyl)-[1,3,4]oxadiazol-2-ylmethyl]-4,4-dimethyl-2-oxo-pyrrolidin-3-yloxy}-2-trifluoromethyl-benzonitrile], for which the IC50 at hAR (setting [2]) was 131 nM; on androgen receptor (read-out: IC50), 166 nM.

Consider `CC1(C)CN(Cc2nnc(-c3ccccc3)o2)C(=O)C1Oc1ccc(C#N)c(C(F)(F)F)c1` (centres unmarked) [Example 56, 4-[4,4-Dimethyl-2-oxo-1-(5-phenyl-[1,3,4]oxadiazol-2-ylmethyl)-pyrrolidin-3-yloxy]-2-trifluoromethyl-benzonitrile], for which the IC50 is 171 nM on hAR (setting [1]) and 735 nM against androgen receptor.

For `CC1(C)CN(Cc2ccccc2F)C(=O)C1Oc1ccc(C#N)c(C(F)(F)F)c1` (centres unmarked) [Example 15, 4-[1-(2-Fluoro-benzyl)-4,4-dimethyl-2-oxo-pyrrolidin-3-yloxy]-2-trifluoromethyl-benzonitrile], the half-inhibitory concentration (IC50) at hAR (setting [1]) worked out at 48 nM; on androgen receptor, 71 nM.

Turning to `CC1(C)CN(Cc2nnc(-c3ccc(O)cc3)o2)C(=O)C1Oc1ccc(C#N)c(C(F)(F)F)c1` (centres unmarked) [Example 114, 4-{1-[5-(4-Hydroxy-phenyl)-[1,3,4]oxadiazol-2-ylmethyl]-4,4-dimethyl-2-oxo-pyrrolidin-3-yloxy}-2-trifluoromethyl-benzonitrile], the half-inhibitory concentration (IC50) was found to be 41 nM at hAR (setting [1]) and 656 nM at androgen receptor (read-out: IC50).

Consider `CC1(C)CN(S(=O)(=O)c2ccccc2)C(=O)C1Oc1ccc(C#N)c(C(F)(F)F)c1` (centres unmarked) [Example 73, 4-(1-Benzenesulfonyl-4,4-dimethyl-2-oxo-pyrrolidin-3-yloxy)-2-trifluoromethyl-benzonitrile], for which the half-inhibitory concentration (IC50) at hAR (setting [2]) came to 206 nM; against androgen receptor, 49 nM.

Regarding `CCOC(=O)c1ccc(CN2CC(C)(C)C(Oc3ccc(C#N)c(C(F)(F)F)c3)C2=O)o1` (centres unmarked) [Example 29, 5-[3-(4-Cyano-3-trifluoromethyl-phenoxy)-4,4-dimethyl-2-oxo-pyrrolidin-1-ylmethyl]-furan-2-carboxylic acid ethyl ester], the IC50 at hAR (setting [1]) turned out to be 119 nM; against androgen receptor, 124 nM.

Take `CC1(C)CN(Cc2nnc(-c3ccc(O)cc3O)o2)C(=O)C1Oc1ccc(C#N)c(C(F)(F)F)c1` (centres unmarked) [Example 123, 4-{1-[5-(2,4-Dihydroxy-phenyl)-[1,3,4]oxadiazol-2-ylmethyl]-4,4-dimethyl-2-oxo-pyrrolidin-3-yloxy}-2-trifluoromethyl-benzonitrile]: the figures for the IC50 at hAR (setting [1]) and at androgen receptor (read-out: IC50) were 61 nM and 176 nM, respectively.

For the compound `COC(=O)c1ccc(CN2CC(C)(C)C(Oc3ccc(C#N)c(C(F)(F)F)c3)C2=O)o1` (centres unmarked) [Example 28, 5-[3-(4-Cyano-3-trifluoromethyl-phenoxy)-4,4-dimethyl-2-oxo-pyrrolidin-1-ylmethyl]-furan-2-carboxylic acid methyl ester], the IC50 is 310 nM at hAR (setting [2]) and 317 nM on androgen receptor (read-out: IC50).

As to `CC1(C)CN(Cc2cccc(O)c2)C(=O)C1Oc1ccc(C#N)c(C(F)(F)F)c1` (single isomer, unassigned; (+)) [Example 14, (+)-4-[1-(3-Hydroxy-benzyl)-4,4-dimethyl-2-oxo-pyrrolidin-3-yloxy]-2-trifluoromethyl-benzonitrile], the results for the IC50 on hAR (setting [1]) and against androgen receptor were 23 nM and 99 nM, respectively.

With `CC1(C)CN(Cc2nnc(-c3cccc(F)c3)o2)C(=O)C1Oc1ccc(C#N)c(C(F)(F)F)c1` (centres unmarked) [Example 115, 4-{1-[5-(3-Fluoro-phenyl)-[1,3,4]oxadiazol-2-ylmethyl]-4,4-dimethyl-2-oxo-pyrrolidin-3-yloxy}-2-trifluoromethyl-benzonitrile], the IC50 is 142 nM at hAR (setting [2]) and 415 nM at androgen receptor (read-out: IC50).
